Data from the NIST ThermoML archive (doi:10.1021/acs.jced.6b00455).

Test: mn = molality of the nth substance listed, in mol/kg
Conditions: 101 kPa, Liquid, Alternating current cell with electrodes

C[N+](C)(C)CCO.O=C([O-])C(F)(F)C(F)(F)C(F)(F)C(F)(F)F [(2-hydroxyethyl)trimethylammonium perfluoropentanoate] + O
Conditions	electrical conductivity [S/m]
293.15 K, m1 = 0.000529	0.0033
293.15 K, m1 = 0.001164	0.0074
293.15 K, m1 = 0.001886	0.012
293.15 K, m1 = 0.002281	0.0144
293.15 K, m1 = 0.002766	0.0174
293.15 K, m1 = 0.003311	0.0207
293.15 K, m1 = 0.003805	0.0236
293.15 K, m1 = 0.004377	0.0271
293.15 K, m1 = 0.004908	0.0302
293.15 K, m1 = 0.005409	0.033
293.15 K, m1 = 0.005979	0.0364
293.15 K, m1 = 0.006697	0.0404
293.15 K, m1 = 0.007467	0.0447
293.15 K, m1 = 0.008082	0.0481
293.15 K, m1 = 0.00858	0.0508
293.15 K, m1 = 0.009905	0.058
293.15 K, m1 = 0.01142	0.066
293.15 K, m1 = 0.0124	0.0711
293.15 K, m1 = 0.01324	0.0753
293.15 K, m1 = 0.01399	0.0792
293.15 K, m1 = 0.01513	0.085
293.15 K, m1 = 0.01598	0.0891
293.15 K, m1 = 0.01695	0.0936
293.15 K, m1 = 0.01789	0.098
293.15 K, m1 = 0.01884	0.102
293.15 K, m1 = 0.01994	0.108
293.15 K, m1 = 0.02076	0.112
293.15 K, m1 = 0.02179	0.116
293.15 K, m1 = 0.02264	0.12
293.15 K, m1 = 0.02348	0.123
293.15 K, m1 = 0.0245	0.128
298.15 K, m1 = 0.00173	0.0127
298.15 K, m1 = 0.003076	0.0222
298.15 K, m1 = 0.004761	0.0337
298.15 K, m1 = 0.006222	0.0434
298.15 K, m1 = 0.007398	0.0509
298.15 K, m1 = 0.008599	0.0589
298.15 K, m1 = 0.01005	0.0687
298.15 K, m1 = 0.01198	0.0799
298.15 K, m1 = 0.01368	0.0892
298.15 K, m1 = 0.01543	0.0996
298.15 K, m1 = 0.01692	0.108
298.15 K, m1 = 0.0184	0.116
298.15 K, m1 = 0.02111	0.131
298.15 K, m1 = 0.02244	0.138
298.15 K, m1 = 0.02415	0.148
298.15 K, m1 = 0.02609	0.158
298.15 K, m1 = 0.02818	0.17
298.15 K, m1 = 0.031	0.183
298.15 K, m1 = 0.03389	0.198
298.15 K, m1 = 0.03746	0.215
298.15 K, m1 = 0.04011	0.228
298.15 K, m1 = 0.04312	0.245
303.15 K, m1 = 0.000602	0.005
303.15 K, m1 = 0.001118	0.0092
303.15 K, m1 = 0.001883	0.0153
303.15 K, m1 = 0.002669	0.0214
303.15 K, m1 = 0.002939	0.0235
303.15 K, m1 = 0.003765	0.0297
303.15 K, m1 = 0.004158	0.0325
303.15 K, m1 = 0.004947	0.0388
303.15 K, m1 = 0.005615	0.0446
303.15 K, m1 = 0.006164	0.0494
303.15 K, m1 = 0.006758	0.0518
303.15 K, m1 = 0.007514	0.0567
303.15 K, m1 = 0.008082	0.0606
303.15 K, m1 = 0.008631	0.0643
303.15 K, m1 = 0.009197	0.0673
303.15 K, m1 = 0.01012	0.0743
303.15 K, m1 = 0.01148	0.0832
303.15 K, m1 = 0.01208	0.0872
303.15 K, m1 = 0.0126	0.0906
303.15 K, m1 = 0.0131	0.0936
303.15 K, m1 = 0.01373	0.0973
303.15 K, m1 = 0.01442	0.102
303.15 K, m1 = 0.01495	0.105
303.15 K, m1 = 0.01641	0.114
303.15 K, m1 = 0.01705	0.118
303.15 K, m1 = 0.01772	0.121
303.15 K, m1 = 0.01824	0.124
303.15 K, m1 = 0.01885	0.128
303.15 K, m1 = 0.01941	0.131
303.15 K, m1 = 0.01993	0.134
303.15 K, m1 = 0.02055	0.138
303.15 K, m1 = 0.02116	0.142
303.15 K, m1 = 0.02184	0.146
303.15 K, m1 = 0.02259	0.15
303.15 K, m1 = 0.02308	0.153
303.15 K, m1 = 0.0237	0.157
303.15 K, m1 = 0.0247	0.164
303.15 K, m1 = 0.02557	0.168
308.15 K, m1 = 0.000318	0.0029
308.15 K, m1 = 0.000786	0.007
308.15 K, m1 = 0.001299	0.0115
308.15 K, m1 = 0.001909	0.0169
308.15 K, m1 = 0.002425	0.021
308.15 K, m1 = 0.002911	0.0256
308.15 K, m1 = 0.003184	0.0277
308.15 K, m1 = 0.003945	0.035
308.15 K, m1 = 0.004657	0.0404
308.15 K, m1 = 0.005206	0.0449
308.15 K, m1 = 0.005836	0.0493
308.15 K, m1 = 0.006331	0.0529
308.15 K, m1 = 0.006772	0.0563
308.15 K, m1 = 0.007443	0.0629
308.15 K, m1 = 0.008421	0.0711
308.15 K, m1 = 0.008974	0.0763
308.15 K, m1 = 0.009871	0.0832
308.15 K, m1 = 0.01044	0.0864
308.15 K, m1 = 0.01092	0.0897
308.15 K, m1 = 0.01159	0.0936
308.15 K, m1 = 0.01221	0.0982
308.15 K, m1 = 0.01248	0.101
308.15 K, m1 = 0.01314	0.104
308.15 K, m1 = 0.01361	0.108
308.15 K, m1 = 0.01442	0.114
308.15 K, m1 = 0.01492	0.119
308.15 K, m1 = 0.01568	0.125
308.15 K, m1 = 0.0164	0.13
308.15 K, m1 = 0.01694	0.134
308.15 K, m1 = 0.01787	0.14
308.15 K, m1 = 0.01861	0.145
308.15 K, m1 = 0.01941	0.151
308.15 K, m1 = 0.02104	0.162
308.15 K, m1 = 0.02193	0.168
308.15 K, m1 = 0.02283	0.173
308.15 K, m1 = 0.02369	0.178
308.15 K, m1 = 0.02427	0.182
308.15 K, m1 = 0.02502	0.188
308.15 K, m1 = 0.02563	0.192
313.15 K, m1 = 0.000187	0.0015
313.15 K, m1 = 0.000688	0.0067
313.15 K, m1 = 0.001827	0.0169
313.15 K, m1 = 0.002361	0.0217
313.15 K, m1 = 0.002859	0.0266
313.15 K, m1 = 0.003424	0.0322
313.15 K, m1 = 0.00399	0.0371
313.15 K, m1 = 0.004604	0.0421
313.15 K, m1 = 0.005344	0.0499
313.15 K, m1 = 0.005863	0.0548
313.15 K, m1 = 0.006345	0.0593
313.15 K, m1 = 0.006846	0.064
313.15 K, m1 = 0.008054	0.074
313.15 K, m1 = 0.008628	0.079
313.15 K, m1 = 0.009481	0.0864
313.15 K, m1 = 0.009912	0.0907
313.15 K, m1 = 0.01048	0.0955
313.15 K, m1 = 0.01099	0.0999
313.15 K, m1 = 0.01153	0.104
313.15 K, m1 = 0.0121	0.11
313.15 K, m1 = 0.01268	0.114
313.15 K, m1 = 0.01328	0.119
313.15 K, m1 = 0.01388	0.124
313.15 K, m1 = 0.01459	0.13
313.15 K, m1 = 0.01545	0.136
313.15 K, m1 = 0.01599	0.141
313.15 K, m1 = 0.0169	0.148
313.15 K, m1 = 0.01817	0.157
313.15 K, m1 = 0.01879	0.162
313.15 K, m1 = 0.01965	0.169
313.15 K, m1 = 0.02019	0.172
313.15 K, m1 = 0.02082	0.177
313.15 K, m1 = 0.02134	0.18
313.15 K, m1 = 0.02194	0.184
313.15 K, m1 = 0.02255	0.19
313.15 K, m1 = 0.02328	0.195
313.15 K, m1 = 0.02409	0.2
